Measured values from publication PMC9020998 (Oxidative Medicine and Cellular Longevity, 2022).
Several values for one entry are separate records, joined by “and”; a condition that tells them apart may be missing. Equal entries are not always repeated. Where two headings read alike, the source gives them in different places.

Key:
[1] = DPPH free radical scavenging assay; assay type: biochemical
Description: The 1,1-diphenyl-2-picrylhydrazyl free radicals of the compounds were performed by using the reported method. Different concentrations of the compounds were mixed with DPPH methanolic solution of 0.004%. After half an hour, the absorption was determined with a double-beam UV-visible spectrophotometer at 517 nm. The same standard (ascorbic acid) was used as in the ABTS assay. The experiments were repeated three times. The percent inhibitions and IC50 values of the compounds were calculated with the standard formula.

[2] = ABTS free radical scavenging assay; assay type: biochemical; conditions: for ABTS IC50: ABTS radical scavenging, absorbance at 734 nm
Description: The ABTS free radical scavenging antioxidant activity of the compounds was performed by using the previously reported methods. In this activity, the compounds scavenge ABTS^+ cations, and thus, a reduction in absorption is observed at 734 nm using a UV-visible spectrophotometer. Solutions of 7 mM ABTS and 2.45 mM of […] were prepared and were mixed. The mixture was stored at dark for about 16 h to get ABTS cations which appeared dark in color. The solution of ABTS cation was diluted with phosphate buffer (0.01 M having pH of 7.4); the absorbance value (0.70) was adjusted at 734 nm. To confirm the ABTS radicals' scavenging capacity, 300 μL solution of compound was mixed with 3.0 mL of ABTS. After one minute, the reduction in absorption was noted and was monitored for six minutes. The ascorbic acid was used as positive control in this activity. The experiments were repeated three times. The percent inhibitions and its IC50 values were measured as per the standard method.

[3] = target: T1, protein tyrosine phosphatase 1B (Homo sapiens, UniProt P18031); assay: Protein tyrosine phosphatase 1B assay; assay type: biochemical
T1 sequence (P18031 1-435): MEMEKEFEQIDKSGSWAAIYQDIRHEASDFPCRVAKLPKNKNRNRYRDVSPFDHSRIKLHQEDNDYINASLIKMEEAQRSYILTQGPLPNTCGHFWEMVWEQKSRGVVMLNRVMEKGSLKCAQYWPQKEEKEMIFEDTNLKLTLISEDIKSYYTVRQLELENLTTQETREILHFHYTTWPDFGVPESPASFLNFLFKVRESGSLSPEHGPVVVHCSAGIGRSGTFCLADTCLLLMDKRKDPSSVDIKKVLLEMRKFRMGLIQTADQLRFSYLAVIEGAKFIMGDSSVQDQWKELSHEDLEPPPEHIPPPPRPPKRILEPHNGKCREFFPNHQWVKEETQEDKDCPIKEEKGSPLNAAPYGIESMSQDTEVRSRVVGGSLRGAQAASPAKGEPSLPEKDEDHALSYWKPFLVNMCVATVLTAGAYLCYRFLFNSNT
Description: In the PTP1B assay, 4-nitrophenylphosphate was used as substrate. The solution of dimethyl glutarate […] in buffer of pH 7 was prepared to be used in the assay. […] The solution was incubated at 37°C for 15 min. […] The experiments were performed three times. The percent inhibitions and their corresponding IC50 values were calculated as per the standard formula [46].

5-LOX = assay: 5-Lipoxygenase assay (5-LOX); assay type: biochemical
Description: The lipoxygenase enzyme 10,000 unit/μL was used in the assay. The substrate used in this assay was linoleic acid. […] The combined mixture was incubated at 25°C for 5 min. Afterwards, linoleic acid was properly mixed with it and was kept for 5 min. […] The experiments were performed three times. The percent 5-LOX inhibitions and the IC50 values were calculated as per the standard formula [44].

BChE = BChE (Homo sapiens, UniProt P06276); assay: Anticholinesterase assay (BChE); assay type: biochemical
Description: (§1) The two enzymes break down their respective thiocholine iodide to produce the ion 5-thio-2-nitrobenzoate. […] The enzyme dilutions were prepared in phosphate buffer having pH of 8. Parallelly, the acetyl and butyrylthiocholine iodide solutions (0.05 mM) and DTNB were also prepared in H2O (distilled water of our laboratory) and were stored at 8°C for 15 min. […] The experiments were performed three times. The percent inhibitions and their subsequent IC50 values were calculated as per the standard formula [43].

COX-1 = COX-1 (Homo sapiens, UniProt P23219); assay: Anticyclooxygenase assay (COX-1); assay type: biochemical
Description: (§2) The COX-1 enzyme 10 μL and COX-2 300 units/mL were activated on ice for 5 min. The activation solution was accompanied by a cofactor of 50 μL containing glutathione, hematin, 1.0 mM, and TMPD in Tris-HCl buffer with pH of 8. […] The reaction was initiated when arachidonic acid 20 μL was added. The reaction was incubated for 5 min, and absorbance was measured at 570 nm as per the reported procedure. The experiments were repeated three times.

COX-2 = target: T2, COX-2 (Homo sapiens, UniProt P35354); assay: Anticyclooxygenase assay (COX-2); assay type: biochemical
T2 sequence (P35354 18-604): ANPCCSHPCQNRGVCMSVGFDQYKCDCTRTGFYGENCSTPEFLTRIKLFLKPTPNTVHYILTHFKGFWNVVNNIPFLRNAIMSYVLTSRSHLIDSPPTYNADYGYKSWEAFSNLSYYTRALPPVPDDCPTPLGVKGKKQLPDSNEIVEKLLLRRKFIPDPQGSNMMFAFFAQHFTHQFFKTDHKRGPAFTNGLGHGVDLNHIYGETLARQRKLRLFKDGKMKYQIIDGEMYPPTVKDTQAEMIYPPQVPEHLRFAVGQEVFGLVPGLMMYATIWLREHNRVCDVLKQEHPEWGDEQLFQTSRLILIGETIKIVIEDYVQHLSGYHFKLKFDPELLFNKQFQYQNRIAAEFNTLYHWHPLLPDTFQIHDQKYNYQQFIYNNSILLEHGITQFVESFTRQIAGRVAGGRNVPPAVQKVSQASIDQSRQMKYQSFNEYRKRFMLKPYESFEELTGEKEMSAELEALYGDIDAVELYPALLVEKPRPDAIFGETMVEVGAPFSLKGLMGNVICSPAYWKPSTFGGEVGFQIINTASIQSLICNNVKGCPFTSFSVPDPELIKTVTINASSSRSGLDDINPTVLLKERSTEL
Description: as §2

AChE = AChE (Homo sapiens, UniProt P22303); assay: biochemical
Description: as §1

[4] = DPPH radical scavenging, absorbance at 517 nm
[5] = Tables 2 and 3 print no unit, text μg/mL, abstract μM
[6] = Table 2 prints no unit, text b63 μg/mL, abstract μM

AChE, sequence (P22303 32-614): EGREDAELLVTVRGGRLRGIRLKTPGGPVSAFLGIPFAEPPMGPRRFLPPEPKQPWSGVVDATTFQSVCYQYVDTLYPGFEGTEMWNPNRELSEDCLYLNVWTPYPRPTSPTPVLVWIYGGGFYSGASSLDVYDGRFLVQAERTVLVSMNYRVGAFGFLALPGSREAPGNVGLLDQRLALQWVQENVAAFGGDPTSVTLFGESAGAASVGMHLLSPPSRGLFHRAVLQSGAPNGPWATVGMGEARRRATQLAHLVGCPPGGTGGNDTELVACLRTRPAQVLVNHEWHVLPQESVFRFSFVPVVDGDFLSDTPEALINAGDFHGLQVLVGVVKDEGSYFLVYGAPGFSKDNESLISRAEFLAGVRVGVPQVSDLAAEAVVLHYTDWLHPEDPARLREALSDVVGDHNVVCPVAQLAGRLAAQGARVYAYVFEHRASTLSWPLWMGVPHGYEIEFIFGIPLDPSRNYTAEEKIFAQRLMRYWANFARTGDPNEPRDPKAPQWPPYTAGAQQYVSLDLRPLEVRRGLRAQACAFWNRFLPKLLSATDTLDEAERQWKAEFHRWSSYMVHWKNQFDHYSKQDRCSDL
BChE, sequence (P06276 29-602, species assumed): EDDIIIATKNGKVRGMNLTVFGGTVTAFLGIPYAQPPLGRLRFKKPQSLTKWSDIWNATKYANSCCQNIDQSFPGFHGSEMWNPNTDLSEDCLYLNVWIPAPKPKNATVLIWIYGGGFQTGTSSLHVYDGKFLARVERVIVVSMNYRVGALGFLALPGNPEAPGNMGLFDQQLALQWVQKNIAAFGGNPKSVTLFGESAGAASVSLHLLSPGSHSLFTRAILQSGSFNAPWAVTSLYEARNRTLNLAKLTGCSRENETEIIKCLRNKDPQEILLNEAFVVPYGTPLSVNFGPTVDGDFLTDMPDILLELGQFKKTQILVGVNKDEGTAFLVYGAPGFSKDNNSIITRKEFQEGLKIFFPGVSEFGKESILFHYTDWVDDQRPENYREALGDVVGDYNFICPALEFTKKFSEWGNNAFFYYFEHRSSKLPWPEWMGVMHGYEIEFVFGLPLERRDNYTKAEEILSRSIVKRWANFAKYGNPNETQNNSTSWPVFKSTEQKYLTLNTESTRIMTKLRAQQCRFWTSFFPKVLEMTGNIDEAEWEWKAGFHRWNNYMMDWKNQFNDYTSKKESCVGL
COX-1, sequence (P23219 24-599): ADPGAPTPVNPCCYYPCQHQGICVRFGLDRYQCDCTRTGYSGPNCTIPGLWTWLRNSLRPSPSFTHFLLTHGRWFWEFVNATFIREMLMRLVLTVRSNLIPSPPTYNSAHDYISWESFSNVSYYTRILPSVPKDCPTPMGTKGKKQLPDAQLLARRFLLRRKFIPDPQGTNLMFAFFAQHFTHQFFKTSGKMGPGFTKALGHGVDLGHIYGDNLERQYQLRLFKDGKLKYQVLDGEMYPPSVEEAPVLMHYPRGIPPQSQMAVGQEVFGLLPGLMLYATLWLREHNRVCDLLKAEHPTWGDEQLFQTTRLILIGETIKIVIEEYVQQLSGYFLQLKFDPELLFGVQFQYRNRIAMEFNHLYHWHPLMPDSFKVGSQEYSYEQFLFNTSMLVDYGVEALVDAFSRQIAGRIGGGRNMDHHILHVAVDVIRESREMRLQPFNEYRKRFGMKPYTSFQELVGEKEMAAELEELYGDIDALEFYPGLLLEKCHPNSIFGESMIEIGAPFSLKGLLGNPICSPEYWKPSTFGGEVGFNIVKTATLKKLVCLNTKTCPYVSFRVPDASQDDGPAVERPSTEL

## C=Cc1ccc(O)cc1 [Compound 3, 4-Vinylphenol]
[1]; [4]
  DPPH IC50: 10.27 µg/mL
[2]
  ABTS IC50: 12.60 mg/L

## OCc1ccco1 [Compound 1, Furan-2-ylmethanol]
[1]; [4]
  DPPH IC50: 8.19 µg/mL
[2]
  ABTS IC50: 7.43 mg/L

## COc1cc(CC(C)=O)ccc1O [Compound 6, 1-(4-Hydroxy-3-methoxyphenyl)propan-2-one]
[1]; [4]
  DPPH IC50: 9.99 µg/mL
[2]
  ABTS IC50: 9.55 mg/L

## CC1=C(O)C(=O)C(C)(O)O1 (centres unmarked) [Compound 2, 2,4-Dihydroxy-2,5-dimethylfuran-3(2H)-one]
[1]; [4]
  DPPH IC50: 1.61 µg/mL
[2]
  ABTS IC50: 3.005 mg/L
[2]; at 31.25 μg/mL
  ABTS percent inhibition: 66.44
[2]; at 62.5 μg/mL
  ABTS percent inhibition: 71.47
[2]; at 125 μg/mL
  ABTS percent inhibition: 77.39
[2]; at 250 μg/mL
  ABTS percent inhibition: 83.34
[2]; at 500 μg/mL
  ABTS percent inhibition: 88.36

## COc1cc(/C=C2\SC(=O)NC2=O)ccc1O [Compound 5B, (Z)-5-(4-Hydroxy-3-methoxybenzylidene)thiazolidine-2,4-dione]
[1]
  IC50: 1.94 µM
[1]; [5]
  DPPH IC50: 1.94 ± 1.20
[3]; read-out: protein tyrosine phosphatase 1B IC50
  IC50: 53.3 µM
[3]; unit inferred, text b66 μg/mL, abstract μM, read-out: PTP1B IC50 (converted)
  IC50: 212 µM

## O=C1O[C@H]([C@@H](O)CO)C(O)=C1O [Ascorbic acid, reference compound]
[1]; [4]
  DPPH IC50: 0.840 µg/mL
[1]; [5]
  DPPH IC50: 0.840 ± 0.14 and 0.840 ± 0.04
[2]
  ABTS IC50: 0.211 mg/L

## COc1c(O)ccc(O)c1C [Compound 4, 2-Methoxy-3-methylbenzene-1,4-diol]
[1]; [4]
  DPPH IC50: 3.19 µg/mL
[2]
  ABTS IC50: 4.63 mg/L

## COc1cc(C=O)ccc1O [Compound 5, 4-Hydroxy-3-methoxybenzaldehyde]
[1]; [4]
  DPPH IC50: 2.12 µg/mL
[2]
  ABTS IC50: 8.28 mg/L

## COc1cc(/C=C2\CC(=O)N(c3ccc(O)cc3)C2=O)ccc1O [Compound 5A, (E)-3-(4-Hydroxy-3-methoxybenzylidene)-1-(4-hydroxyphenyl)pyrrolidine-2,5-dione]
[1]
  IC50: 1.05 µM
[1]; [5]
  DPPH IC50: 1.05 ± 0.51
5-LOX; Table 2 prints no unit, text b63 μg/mL, abstract and b89 μM
  5-LOX IC50: 0.71 ± 0.10
5-LOX; as printed in abstract and b89
  IC50: 0.71 µM
BChE
  IC50: 15.1 µM
BChE; [6]
  IC50: 46.4 µM
COX-1; COX-1 IC50, Table 2 prints no unit, text b63 μg/mL, abstract μM
  IC50: 42.8 µM
COX-1; COX-1 IC50, as printed in abstract
  IC50: 13.9 µM
COX-2; COX-2 IC50, Table 2 prints no unit, text b63 μg/mL, abstract μM
  IC50: 3.32 µM
COX-2; COX-2 IC50, as printed in abstract
  IC50: 1.08 µM
COX-2; ratio of COX-1 and COX-2 IC50
  SI (COX-2 selectivity index): 12.9
AChE
  IC50: 10.6 µM
AChE; [6]
  IC50: 32.6 µM
AChE; ratio of BChE IC50 to AChE IC50
  SI (selectivity index AChE/BChE): 1.42
